One may read the Km as the concentration of substrate that gives half-maximal velocity. As usually defined, the kcat is the number of substrate molecules converted per active site and unit of time at saturation.

The source of these data is patent US8101389B2, “Bacterial glutamine synthetases and methods of use” (Athenix Corp, priority 2006, dated 2012).

For data set [1], the system named is pea leaf glutamine synthetase. The conditions noted are these: Leason et al. (1982); cited from earlier work.
In data set [2] the test system is E. coli cells with AGS1 variant AGS1m2 (pAX3422), F81S, P185S, G218S, I303N, SEQ ID NO:6. Description: growth of E. coli on herbicide plates, ags1m2. Type of data set: cell-based. The conditions noted are these: 50 mM glyphosate; than the other variants, except AGS1m16. How it is done:
(§1) Mutants of the bacterial glutamine synthetase gene ags1 (SEQ ID NO:1) were created by error-prone mutagenesis using the GENEMORPH® Random Mutagenesis kit, and also using oligo-directed mutagenesis as known in the art. However, many methods are available for creating libraries of mutants. The resulting mutants were cloned into a pUC19 vector, electroporated into either XL-1 or DH5 alpha E. coli cells, and selected for growth on M63+ agar media containing antibiotic and 2, 10, or 20 mM glufosinate. Twenty-two clones were identified as growing on 20 mM glufosinate, and picked for further analysis.
ags1m2 was mutagenized by error-prone mutagenesis using GENEMORPH® II Random Mutagenesis kit (Stratagene) according to manufacturer's instructions. Mutagenized PCR product was digested with Sac I and Hind III, and ligated into a pUC vector, similarly digested with Sac I and Hind III. Ligations were transformed into E. coli cells, and plated onto M63+ plates containing antibiotic, and 125 mM glufosinate. Clones growing on 125 mM glufosinate plates were retested on 200 mM glufosinate plates, and compared to similar platings of ags1m1 and ags1m2. […] The DNA sequence of the ags open reading frame in pAX3439 was sequenced, and the gene designated as ags1m16. The DNA sequence of ags1m16 is represented herein as SEQ ID NO:31, and the amino acid sequence is represented herein as SEQ ID NO:32. […]

The subject of data set [3] is E. coli cells with AGS1 variant AGS1m4 (pAX3428), A151T, V214M, S276Y, SEQ ID NO:10. Nature of the data set: growth of E. coli on herbicide plates, ags1m4. In kind it is cell-based. The conditions noted are these: than the other variants, except AGS1m16. From the text:
Mutants of the bacterial glutamine synthetase gene ags1 (SEQ ID NO:1) were created by error-prone mutagenesis using the GENEMORPH® Random Mutagenesis kit, and also using oligo-directed mutagenesis as known in the art. However, many methods are available for creating libraries of mutants. […]

In data set [4] the test system is N[C@@H](CCC(=O)O)C(=O)O. Description: enzymatic assay, kinetics of wild-type AGS1. The conditions noted are these: other: Table 4. Type of data set: biochemical, Serratia marcescens. From the text: (§2) ags1m1 (pAX3421) and ags1m2 (pAX3422) were subcloned into E. coli expression vector pRSF1B (Invitrogen) so as to create an N-terminus encoding a 6Xhis tag, purified and characterized kinetically.
(§3) ags1m21 (SEQ ID NO:41) encodes the AGS1m21 protein (SEQ ID NO:42). AGS1m21 is a variant of AGS1 that contains a similar amino acid change identified in other variants (V214M), as well as two novel mutations (N160S and G167R). This enzyme was expressed in E. coli, purified, and the kinetic values Km(glutamate) and Ki(glufosinate) of the variant measured by enzymatic assay.
(§4) The unmodified enzyme (AGS1) was compared to AGS1(AD-) and AGS1m17(AD-) by carrying out enzymatic assays on both enzymes following purification from E. coli. A glutamine synthetase enzyme from E. coli (GlnA) was also tested.

Data set [5] deals with N[C@@H](CCC(=O)O)C(=O)O. Description: enzymatic assay, kinetics of AGS1(AD-). Type of data set: biochemical, Serratia marcescens. Particulars: other: Table 5. How it is done: ags1(ad-) (SEQ ID NO:43) encoding the AGS1(AD-) protein (SEQ ID NO:44), is a variant of ags1 in which the putative adenylylation site has been removed by mutating the tyrosine at position 398 of AGS1 to a phenylalanine by site directed mutagenesis.
as §4

The subject of data set [6] is N[C@@H](CCC(=O)O)C(=O)O. Nature of the data set: enzymatic assay, kinetics of AGS1m17(AD-). In kind it is biochemical, Serratia marcescens. Particulars: other: Table 5. How it is done: ags1m17(ad-) (SEQ ID NO:45) encoding the AGS1m17(AD-) protein (SEQ ID NO:46), is a variant of ags1m17 in which the putative adenylylation site has been removed by mutating the tyrosine at position 398 of AGS1 to a phenylalanine by site directed mutagenesis.
as §4

Data set [7] deals with N[C@@H](CCC(=O)O)C(=O)O. Nature of the data set: enzymatic assay, kinetics of AGS1m21. In kind it is biochemical, Serratia marcescens. The conditions noted are these: other: Table 4.
Description: as §3

For data set [8], the system named is E. coli cells. Nature of the data set: Growth of E. coli transformants on M63 plates containing glufosinate. Type of data set: cell-based. Particulars: for growth on glufosinate minimal M63+ agar media: 2, 10, 20, 50 and 100 mM glufosinate, DH5a E. coli cells. How it is done:
To reconfirm that TKH2 and TKH3 confer resistance to 20 mM glufosinate, the purified plasmids were retransformed into DH5α cells. pUC18 was retransformed as a negative control. The transformation mixes were plated directly on M63 minimal plates with or without 20 mM glufosinate.
as §1
ags1m2 was mutagenized by error-prone mutagenesis using GENEMORPH® II Random Mutagenesis kit (Stratagene) according to manufacturer's instructions. Mutagenized PCR product was digested with Sac I and Hind III, and ligated into a pUC vector, similarly digested with Sac I and Hind III. Ligations were transformed into E. coli cells, and plated onto M63+ plates containing antibiotic, and 125 mM glufosinate. Clones growing on 125 mM glufosinate plates were retested on 200 mM glufosinate plates, and compared to similar platings of ags1m1 and ags1m2. […] The DNA sequence of the ags open reading frame in pAX3439 was sequenced, and the gene designated as ags1m16. The DNA sequence of ags1m16 is represented herein as SEQ ID NO:31, and the amino acid sequence is represented herein as SEQ ID NO:32. AGS1m16 differs from AGS1m2 at a single amino acid at position H212 of the protein, which is modified from Histidine (‘H’) to Asparagine (‘N’), and contains a total of five amino acid changes relative to the wild-type AGS1 (see FIG. 1 and Table 3).
Clones expressing AGS1m17, AGS1m18, AGS1m19, or AGS1m20 were all found to be able to grow on plates containing 375 mM glufosinate, whereas no growth of clones expressing AGS1m16 was observed on plates containing 375 mM glufosinate.

In a further data set the test system is ags1 mutant E. coli. Nature of the data set: Complementation of a glutamine synthase mutant. Type of data set: cell-based. From the text: Clones containing ags1m1 (pAX3421) and ags1m2 (pAX3422) were selected for further work.
The subject of data set [9] is ags1 glutamine synthetase enzyme. Description: Enzymatic activity of purified 6Xhis-tagged glutamine synthetases with and without glufosinate. In kind it is biochemical, Serratia marcescens. The conditions noted are these: for enzymatic activity compared with wild type AGS1: 5 minute assay, absence of glufosinate.
Description: as §2

Data set [10] deals with E. coli cells. Description: Growth of E. coli transformants on M63 plates containing glufosinate. In kind it is cell-based. Particulars: 50 mM glyphosate (so in the source); versus the other variants except AGS1m16.
A further data set deals with maize. Description: Leaf protein content of T0 transgenic maize plants (Bradford assay). Type of data set: in vivo. An excerpt:
synags1m16 (SEQ ID NO:47) is an alternate DNA sequence that encodes the AGS1m16 protein (SEQ ID NO:32). synags1m16 was cloned into a shuttle vector to guide overexpression of AGS1m16 in maize. The vector places overexpression of synags1m16 under the control of the Trp5 promoter (U.S. application Ser. No. 11/377,318, filed Mar. 16, 2006 and herein incorporated by reference in its entirety).
Nine transgenic maize plants containing ags1m16 were generated. Protein expression of the AGS1m16 protein was confirmed by Western blot for each of these events.
Nitrogen use efficiency was evaluated for these events by determining the protein content of leaf samples isolated from the T0 plants after four weeks of growth in the greenhouse.
The protein in leaf samples was quantified as follows: Fifty milligrams of leaf material (fresh weight, no midrib) were freeze-dried for dry weight determination. The dehydrated leaf tissue was then ground in the presence of fresh Milli Q water using a MiniBeadbeater-96™ and 2.3 mm stainless-steel beads. The ground leaf tissue was filtered through a 0.45 μm Polyvinylidene Fluoride (PVDF) filter. Bio-Rad Protein Dye was added to leaf samples diluted in water, and a Bradford protein assay was performed and read in the spectrophotometer at 595 nm vs. internal protein standards included in the assay. […]

For `CS(=N)(=O)CCC(N)C(=O)O` (stereo not drawn) [Methione sulfoximine (MSO), Methione sulfoximine], the “inhibition of pea leaf glutamine synthetase” value in data set [1] is listed as “mixed competitive inhibitor”.
Consider `O=C(O)CNCP(=O)(O)O` [glyphosate], for which the “colony growth on 50 mM glyphosate versus other variants” value in [2] and in data set [3] was “grow more quickly” each time.
“Serratia marcescens ATX 20345 glutamine synthetase AGS1, wild type, SEQ ID NO:2 (Serratia marcescens)”: in the data set on N[C@@H](CCC(=O)O)C(=O)O [4], the Km was found to be 3.4 mM, the Vmax was 0.10 nmol/min/µg and the kcat was 0.08 s⁻¹.
Turning to “Serratia marcescens glutamine synthetase AGS1 variant AGS1(AD-), tyrosine 398 to phenylalanine, SEQ ID NO:44 (Serratia marcescens; Y398F)”, in the data set on N[C@@H](CCC(=O)O)C(=O)O [5], the Km amounted to 3.4 mM.
Consider “Serratia marcescens glutamine synthetase AGS1 variant AGS1m17(AD-), F81S, P185S, H212T, V214A, G218S, I303N plus tyrosine 398 to phenylalanine, SEQ ID NO:46 (Serratia marcescens; F81S/G218S/H212T/I303N/P185S/V214A/Y398F)”, for which, in the data set on N[C@@H](CCC(=O)O)C(=O)O [6], the Km is 14.1 mM.
Consider “Serratia marcescens glutamine synthetase AGS1 variant AGS1m21, N160S, G167R, V214M, SEQ ID NO:42 (Serratia marcescens; G167R/N160S/V214M)”, for which, in the data set with N[C@@H](CCC(=O)O)C(=O)O [7], the Km was 12.0 mM.
Consider “ags1m1: glufosinate resistant ags1 variant V39I, V214M; SEQ ID NO:3/4”, for which the “growth on glufosinate minimal M63+ agar media” value with E. coli cells [8] is “grow on 2, 10, 20, 50, and 100 mM glufosinate”. In addition, the “complementation of ags1 mutant E. coli” value in the data set on ags1 mutant E. coli is “complement ags1 mutant E. coli”. Further, in the data set on ags1 mutant E. coli (comparison of ags1m1 with ags1m2), the “growth rate in complementation of ags1 mutant E. coli” value is on record as “growing at a faster rate than ags1m2”. The “enzymatic activity compared with wild type AGS1” value in [9] is “indistinguishable from wild type enzyme”.
For “ags1m2: ags1 variant F81S, P185S, G218S, I303N; SEQ ID NO:5/6”, the “complementation of ags1 mutant E. coli” value in the data set with ags1 mutant E. coli is given as “complement ags1 mutant E. coli”. For the same molecule, the “enzymatic activity compared with wild type AGS1” value in [9] was “relatively little enzymatic activity”. Moreover, in [9] (overnight), the enzymatic reaction overnight entry is “appeared to go to completion overnight”. Also, the “speed of colony growth on 50 mM glyphosate” value (“speed of colony growth” below) in the data set with E. coli cells [10] is on record as “grow more quickly”.
Consider “ags1m4: ags1 variant A151T, V214M, S276Y; SEQ ID NO:9/10”, for which the “speed of colony growth” value in the data set with E. coli cells [10] is recorded as “grow more quickly”.
Consider “ags1m7: ags1 variant G168C, V214M, K395R; SEQ ID NO:13/14”, for which the “growth on glufosinate minimal M63+ agar media” value in the data set on E. coli cells [8] is “grow on 2, 10, 20, 50, and 100 mM glufosinate”.
“ags1m11: ags1 variant G56A, V214E; SEQ ID NO:21/22”: the “growth on glufosinate minimal M63+ agar media” value in the data set on E. coli cells [8] is “grow on 2, 10, 20, 50, and 100 mM glufosinate”. Besides, in the data set on E. coli cells [10], the “speed of colony growth” value is on record as “grow more quickly”.
For the molecule “ags1m12: ags1 variant V207I, V214M; SEQ ID NO:23/24”, the “growth on glufosinate minimal M63+ agar media” value with E. coli cells [8] is “grow on 2, 10, 20, 50, and 100 mM glufosinate”.
Still for that read-out and setting: then “ags1m14: ags1 variant V150M, D166N, V214M, G289S, A420V; SEQ ID NO:27/28”, with “grow on 2, 10, 20, 50, and 100 mM glufosinate”.
For “ags1m16: ags1 variant F81S, P185S, H212N, G218S, I303N; SEQ ID NO:31/32”, the “resistance conferred upon E. coli, compared among variants” value in the data set on E. coli cells [8] was “most resistance”. Besides, the “growth on 200 mM glufosinate plates” value with E. coli cells [8] (M63+ plates, 200 mM glufosinate) is given as “ability to grow on 200 mM glufosinate plates”. Besides, in the data set on maize (average of nine ags1m16 events), the “Total protein, Avg.” value was found to be 16.8 mg/g dry. For the same molecule, the “higher protein content than the control plants” value with maize (average, versus control plants without ags1m16) was 24%.
